Results as given in US5489600A, “Piperidyl amides, sulfonamides and sulfoxamides as inhibitors of cholesterol biosynthesis” (priority 1994, dated 1996).

The compounds below were run against T1, oxidosqualene cyclase (Rattus norvegicus, UniProt P48450) (assay: Inhibition of Purified Oxidosqualene Cyclase (I10)). Settings: 10 μM test compound; oxidosqualene cyclase purified from rat liver microsomes; [3H]squalene monoepoxide 10 μM; pH 7.4.
T1 construct: Oxidosqualene cyclase is purified from rat liver microsomes; from tissue; host or cells: rat liver microsomes (lauryl maltoside solubilization, FPLC anion-exchange chromatography)
T1 sequence (P48450 1-733): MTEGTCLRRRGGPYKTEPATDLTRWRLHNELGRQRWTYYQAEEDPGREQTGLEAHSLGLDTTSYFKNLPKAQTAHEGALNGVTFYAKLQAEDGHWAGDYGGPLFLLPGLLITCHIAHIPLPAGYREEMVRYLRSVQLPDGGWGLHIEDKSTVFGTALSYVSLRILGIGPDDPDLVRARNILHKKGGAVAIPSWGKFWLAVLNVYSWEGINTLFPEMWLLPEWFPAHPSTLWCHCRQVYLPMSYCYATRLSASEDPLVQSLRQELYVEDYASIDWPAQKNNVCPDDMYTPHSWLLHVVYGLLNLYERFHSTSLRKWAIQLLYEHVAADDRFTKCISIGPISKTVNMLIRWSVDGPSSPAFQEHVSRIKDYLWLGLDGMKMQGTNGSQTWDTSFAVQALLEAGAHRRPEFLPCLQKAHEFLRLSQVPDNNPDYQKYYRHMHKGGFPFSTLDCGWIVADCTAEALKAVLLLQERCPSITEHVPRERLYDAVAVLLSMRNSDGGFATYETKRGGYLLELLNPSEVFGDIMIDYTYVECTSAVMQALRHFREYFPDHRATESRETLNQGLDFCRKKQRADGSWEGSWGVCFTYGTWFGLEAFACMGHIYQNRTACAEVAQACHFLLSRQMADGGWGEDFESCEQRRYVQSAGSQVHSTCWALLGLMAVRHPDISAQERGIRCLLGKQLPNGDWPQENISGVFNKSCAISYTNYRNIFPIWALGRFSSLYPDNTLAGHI
Format: biochemical
Experimental: Inhibition of Purified Oxidosqualene Cycloase (I10)
Oxidosqualene cyclase is purified from rat liver microsomes by the sequential methods of: 1) solubilization with the detergent lauryl maltoside and 2) FPLC anion-exchange chromatography. Compounds are tested to determine their ability to inhibit the conversion of squalene monoepoxide to lanosterol catalyzed by the purified oxidosqualene cyclase. The reaction mixture (final volume, 200 μL), contains potassium phosphate buffer (50 mM, pH 7.4), Na2 EDTA (500 μM), Tween (80 (0.1%), [3H]squalene monoepoxide (10 μM of the racemic mixture, 50 Ci/mol), test compound (10 μM) and purified oxidosqualene cyclase (50 μg). The reagents, prior to mixing are equilibrated at 37° C. for 10 minutes. The reaction is initiated by adding enzyme. The reaction is terminated by the addition of 5 mL of CHCl3 /MeOH (2:1, v/v), 0.8 mL of water and 10 μg each of squalene monoepoxide, squalene diepoxide, lanosterol and cholesterol. The organic layer is isolated and evaporated to dryness under nitrogen. The residue is dissolved in 200 μL of hexane/ethanol (99:1) and the sample is subjected to HPLC separation using a C18 reverse phase column eluted isocratically with 3.6% water in methanol. Radioactivity is quantitated using an in-line scintillation counter. Oxidosqualene cyclase activity is expressed as the percent inhibition of oxidosqualene cyclase activity at 10 μM test compound (I10 values).
Table 1 provides a summary of the testing data for the inhibition of oxidosqualene cyclase by compounds of formula (I) and formula (II).

SMILES	inhibition at 10 µM
CC(C)CCSCCCCC(=O)N1CCC(C(C)CO)CC1 (centres unmarked) [100,759, 1-(1-Oxopentyl-5-isopentylsulfide)-4-[(2-hydroxy-1-methyl)ethyl]piperidine]	76%
CC(C)CCSCCCCC(=O)N1CCCCC1 [101,140, 1-(1-Oxopentyl-5-isopentylsulfide)piperidine]	38%
CC(CO)C1CCN(C(=O)CCCCSc2ccccc2)CC1 (centres unmarked) [101,550, 1-(1-Oxopentyl-5-phenylsulfide)-4-[(2-hydroxy-1-methyl)ethyl]piperidine]	82%
CCCCCCCCCCCC[S+]([O-])N1CCC(C(C)CO)CC1 (centres unmarked) [101,915, 1-(1-Sulfoxododecyl)-4-[(2-hydroxy-1-methyl)ethyl]piperidine]	46%
CCCCCCCCCCCCS(=O)(=O)N1CCC(C(C)CO)CC1 (centres unmarked) [102,055, 1-(1-Sulfonododecyl)-4[(2-hydroxy-1-methyl)ethyl]piperidine]	29%
